Test results reported in article PMC9133036 (Nature Communications, 2022).
Substitutions are numbered along the chain they refer to. Where “and” joins values, the source holds several entries; their conditions need not be identical. Equal entries are not always repeated. Where two headings read alike, the source gives them in different places.

Assays:
Format in all cases: cell-based
[1] = target: T1, OX2R T111S (Homo sapiens, UniProt O43614, T111S); assay: IP accumulation assay, OX2R T111S
T1 construct: FLAG; expressed in transfected cells; host or cells: HEK293
T1 sequence (O43614 1-444 T111S): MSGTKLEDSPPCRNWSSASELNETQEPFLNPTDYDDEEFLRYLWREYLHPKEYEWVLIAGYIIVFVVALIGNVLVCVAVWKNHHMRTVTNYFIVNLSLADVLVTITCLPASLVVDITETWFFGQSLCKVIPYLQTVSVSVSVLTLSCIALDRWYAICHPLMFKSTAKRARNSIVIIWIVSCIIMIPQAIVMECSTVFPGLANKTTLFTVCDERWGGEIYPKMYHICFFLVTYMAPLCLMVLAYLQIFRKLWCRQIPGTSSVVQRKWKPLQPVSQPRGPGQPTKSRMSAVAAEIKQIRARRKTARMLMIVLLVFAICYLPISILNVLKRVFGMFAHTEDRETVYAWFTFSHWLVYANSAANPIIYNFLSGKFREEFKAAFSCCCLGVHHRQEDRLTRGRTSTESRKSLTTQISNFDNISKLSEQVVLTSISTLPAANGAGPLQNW
Excerpt: (§1) The IP assay was adapted from a prior precedent. HEK293 cells were maintained in DMEM-high glucose (Millipore Sigma) supplemented with 5% fetal bovine serum (Corning) and penicillin-streptomycin (Millipore Sigma). Receptor constructs used were the full-length wild-type (or mutant) human OX1R and OX2R sequences cloned into pCDNA3. To enhance the Emax in the IP assay, a plasmid encoding full-length human Gαq subunit[66] was co-transfected into HEK293 cells with plasmids encoding orexin receptor constructs using Lipofectamine 3000 (Thermo Fisher). 24 h after transfection, the cells were plated on poly-D-lysine coated (Millipore Sigma) tissue culture-treated 96 well white plates with clear bottoms (Perkin Elmer) at 30,000 cells per well in Inositol-free DMEM (MP Biomedicals) supplemented with 5% fetal bovine serum, 4 mM L-glutamine (Millipore Sigma), penicillin-streptomycin, and about 5 uCi (5 ul) per ml myo-[2-3H] inositol (Perkin Elmer). The following day, the media was replaced with agonists that were diluted in HBSS (Millipore Sigma) containing 10 mM lithium chloride (Millipore Sigma) and incubated at 37 °C for 45 min. Then agonists were removed and cells were lysed on ice for 30 min with 10 mM formic acid (Millipore Sigma). 1.25 mg of poly-lysine coated YSI SPA beads (Perkin Elmer) was added to each well. The plates were mixed on an orbital shaker for 30 min. The plates were read on a MicroBeta scintillation counter (Perkin Elmer) the following day. IP accumulation assays on different constructs were performed in n ≥ 3 independent experiments (each done in duplicate), where n is shown in Supplementary Table 2.

[2] = target: T2, OX1R S103T (Homo sapiens, UniProt O43613, S103T); assay: IP accumulation assay, OX1R S103T
T2 construct: FLAG; expressed in transfected cells; host or cells: HEK293
T2 sequence (O43613 1-425 S103T): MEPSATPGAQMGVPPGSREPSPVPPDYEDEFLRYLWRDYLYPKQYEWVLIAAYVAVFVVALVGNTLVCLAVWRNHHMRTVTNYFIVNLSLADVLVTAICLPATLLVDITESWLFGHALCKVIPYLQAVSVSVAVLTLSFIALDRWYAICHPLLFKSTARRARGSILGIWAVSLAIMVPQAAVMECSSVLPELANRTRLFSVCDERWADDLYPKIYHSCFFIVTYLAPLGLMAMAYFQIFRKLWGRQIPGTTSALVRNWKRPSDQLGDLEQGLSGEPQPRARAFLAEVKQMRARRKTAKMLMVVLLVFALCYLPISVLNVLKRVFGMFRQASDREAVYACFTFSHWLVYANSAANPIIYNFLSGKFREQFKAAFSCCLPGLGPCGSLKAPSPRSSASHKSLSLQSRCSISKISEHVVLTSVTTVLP
Excerpt: as §1

[3] = target: T3, OX2R F228A (Homo sapiens, UniProt O43614, F228A); assay: β-arrestin PathHunter assay, OX2R F228A; conditions: β-arrestin recruitment
T3 construct: expressed in transfected cells; host or cells: CHO-K1 stably expressing EA β-arrestin2
Description: (§2) β-Arrestin recruitment activity was measured by using the PathHunter system (DiscoveRX) according to the manufacturer’s instruction. Receptor constructs used were the full-length wild-type (or mutant) human OX2R sequences cloned into pCMV-ProLink (DiscoveRX). CHO-K1 cells stably expressing EA β-arrestin2 (DiscoveRX) were plated on 384 well white plates (Thermo Fisher) at 4000 cells/well in HamF12 (Wako Pure Chemical Industries) supplemented with 10% fetal bovine serum (Corning) and penicillin-streptomycin (Wako Pure Chemical Industries) and incubated overnight at 37 °C under 5% CO2. Cells were transfected with plasmids encoding wild type or each mutant ProLink-tagged human OX2R using FuGENE HD (Promega). […] Detection reagent was added and incubated for 1 h at room temperature. Luminescent signal was detected using an EnVision plate reader (PerkinElmer). β-arrestin assays on different constructs were performed in two or three independent experiments (each done in quadruplicate). Dose response curves (shown in Supplementary Fig. 8) were fitted to the three-parameter model ‘log(agonist) vs response’ in GraphPad Prism to determine pEC50 values.

[4] = target: T4, OX2R Y317A (Homo sapiens, UniProt O43614, Y317A); assay: β-arrestin PathHunter assay, OX2R Y317A; conditions: for EC50: β-arrestin recruitment
T4 construct: expressed in transfected cells; host or cells: CHO-K1 stably expressing EA β-arrestin2
T4 sequence (O43614 1-444 Y317A): T1 sequence (O43614 1-444 T111S) with S111T, Y317A
Description: as §2

[5] = target: T5, OX2R R328A (Homo sapiens, UniProt O43614, R328A); assay: β-arrestin PathHunter assay, OX2R R328A; conditions: β-arrestin recruitment
T5 construct: expressed in transfected cells; host or cells: CHO-K1 stably expressing EA β-arrestin2
Description: as §2

T3 sequence (O43614 whole entry F228A): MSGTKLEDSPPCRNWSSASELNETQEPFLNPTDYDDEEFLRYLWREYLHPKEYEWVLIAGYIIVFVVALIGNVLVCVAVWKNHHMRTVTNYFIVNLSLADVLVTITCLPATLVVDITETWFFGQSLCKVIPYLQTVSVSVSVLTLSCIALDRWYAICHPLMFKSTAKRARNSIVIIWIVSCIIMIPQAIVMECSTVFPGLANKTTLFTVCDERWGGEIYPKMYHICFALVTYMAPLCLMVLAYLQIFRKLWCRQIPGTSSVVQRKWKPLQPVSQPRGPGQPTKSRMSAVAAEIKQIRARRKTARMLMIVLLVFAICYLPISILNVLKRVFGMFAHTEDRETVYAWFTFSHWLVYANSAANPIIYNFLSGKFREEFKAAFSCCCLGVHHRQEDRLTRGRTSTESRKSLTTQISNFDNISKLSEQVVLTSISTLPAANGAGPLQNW
T5 sequence (O43614 whole entry R328A): as the sequence (O43614 whole entry F228A) above, with A228F, R328A counted along it

EC50 ([1]; IP accumulation): 0.23 µM
% IP accumulation ([1]; TAK-925 conc (log, M) -4.00, normalized to OX2R WT Emax): 70.98% and 87.26% and 72.84%
% IP accumulation ([1]; TAK-925 conc (log, M) -4.48): 81.25% and 84.62% and 46.26%
% IP accumulation ([1]; TAK-925 conc (log, M) -4.95): 89.34% and 80.76% and 67.67%
% IP accumulation ([1]; TAK-925 conc (log, M) -5.43): 71.72% and 74.73% and 72.02%
% IP accumulation ([1]; TAK-925 conc (log, M) -5.91): 64.42% and 69.82% and 64.34%
% IP accumulation ([1]; TAK-925 conc (log, M) -6.39): 51.66% and 41.45% and 43.47%
% IP accumulation ([1]; TAK-925 conc (log, M) -6.86): 34.40% and 35.79% and 28.55%
% IP accumulation ([1]; TAK-925 conc (log, M) -7.34): 18.97% and 17.10% and 14.95%
% IP accumulation ([1]; TAK-925 conc (log, M) -7.82): 8.44% and 12.15% and 9.41%
% IP accumulation ([1]; TAK-925 conc (log, M) -8.29): 4.76% and 0.00% and 2.26%
% IP accumulation ([1]; TAK-925 conc (log, M) -8.77): 0.00% and 8.93%
Emax ([1]; relative to OX2R WT/TAK-925): 76
activation at 100 µM ([2]; 0.75 h, TAK-925 conc (log, M) -4.00): 122%
activation at 11.2 µM ([2]; 0.75 h, TAK-925 conc (log, M) -4.95): 88.4%
activation at 3.72 µM ([2]; 0.75 h, TAK-925 conc (log, M) -5.43): 57.1%
activation at 1.23 µM ([2]; 0.75 h, TAK-925 conc (log, M) -5.91): 21.9%
activation at 0.0457 µM ([2]; 0.75 h, TAK-925 conc (log, M) -7.34): 9.04%
EC50 ([2]; IP accumulation): 5.3 µM
Emax ([2]; relative to OX1R S103T/A127T/TAK-925): 130
EC50 [3]: 0.6 µM
β-arrestin recruitment, change on mutation of Tyr317 [4]: large reductions
EC50 ([4]; pEC50 ± SEM, read-out: pEC50 (converted)): > 30.2 µM
EC50 ([4]; read-out: EC50): > 30 µM
EC50 [5]: 3 µM
Compound: COC(=O)N1CCC[C@H](NS(C)(=O)=O)[C@@H]1CO[C@H]1CC[C@@H](c2ccccc2)CC1 [TAK-925, methyl (2R,3S)−3-[(methylsulfonyl)amino]−2-{[(cis−4-phenylcyclohexyl)oxy]methyl}piperidine-1-carboxylate]
